Test results reported in patent US8658591B2, “Multi-LEU peptides and analogues thereof as selective PACE4 inhibitors and effective antiproliferative agents” (priority 2008, dated 2014).

Columns and labels:
Format in all cases: biochemical
PC5/6 = PC5/6 (Homo sapiens, UniProt Q92824); assay: Enzyme inhibition assay, fluorogenic substrate, PC5/6
Procedure: (§1) Enzyme inhibition assays for furin (FIG. 5D) were performed in 100 mM Hepes pH 7.5, 1 mM CaCl2, 1 mM β-mercaptoethanol, 0.5 μg/μL BSA. Assays for PC2 (FIG. 5E) were performed in 20 mM Bis-Tris pH 5,7, 1 mM CaCl2, 0.1% Brij-30. Assays for PC1/3, PC4, PACE4, PC5/6 and PC7 (FIGS. 5F, G, A, B and C respectively) were performed in 20 mM Bis-Tis pH 6.5, 1 mM CaCl2. All assays were performed with the substrate pyroGlu-Arg-[…]-Lys-Arg-methyl-coumaryl-7-amide (SEQ ID NO: 33) (PyrRTKR-MCA (SEQ ID NO: 34)) (Bachem, CA) at 100 μM for furin, PC1/3, PC4, PACE4 and PC5/6, 200 μM for PC2 and 250 μM for PC7. Assays were carried out at 37° C. for 30-60 min and real-time fluorescence was measured with an excitation wavelength of 370 nm and an emission wavelength of 460 nm using a Gemini XS™ 96-well spectrofluorometer and SoftMaxPro4™ software (Molecular Devices, CA). Inhibitory peptides were added to the enzymes at decreasing concentrations from 100 μM to 50 nM and incubated 5 minutes prior to the addition of substrate.

PC2 = biological target: T1, PC2 (Homo sapiens, UniProt P16519); assay: Enzyme inhibition assay, fluorogenic substrate, PC2
T1 sequence (P16519 110-638): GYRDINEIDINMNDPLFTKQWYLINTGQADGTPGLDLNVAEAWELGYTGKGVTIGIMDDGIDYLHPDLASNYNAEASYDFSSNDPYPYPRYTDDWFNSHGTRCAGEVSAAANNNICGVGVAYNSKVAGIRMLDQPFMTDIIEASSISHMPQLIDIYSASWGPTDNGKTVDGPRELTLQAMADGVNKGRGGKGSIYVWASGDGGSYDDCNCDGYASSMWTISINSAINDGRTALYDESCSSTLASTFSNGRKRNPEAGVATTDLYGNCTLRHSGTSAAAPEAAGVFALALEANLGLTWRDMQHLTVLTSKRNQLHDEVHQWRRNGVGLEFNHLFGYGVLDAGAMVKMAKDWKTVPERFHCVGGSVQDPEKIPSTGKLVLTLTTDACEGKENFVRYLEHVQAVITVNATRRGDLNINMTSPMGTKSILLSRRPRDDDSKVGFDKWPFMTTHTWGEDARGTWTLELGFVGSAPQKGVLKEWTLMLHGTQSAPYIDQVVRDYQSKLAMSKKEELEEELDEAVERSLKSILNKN
Procedure: as §1

PC1/3 = biological target: T2, PC1/3 (Homo sapiens, UniProt P29120); assay: Enzyme inhibition assay, fluorogenic substrate, PC1/3
T2 sequence (P29120 111-753): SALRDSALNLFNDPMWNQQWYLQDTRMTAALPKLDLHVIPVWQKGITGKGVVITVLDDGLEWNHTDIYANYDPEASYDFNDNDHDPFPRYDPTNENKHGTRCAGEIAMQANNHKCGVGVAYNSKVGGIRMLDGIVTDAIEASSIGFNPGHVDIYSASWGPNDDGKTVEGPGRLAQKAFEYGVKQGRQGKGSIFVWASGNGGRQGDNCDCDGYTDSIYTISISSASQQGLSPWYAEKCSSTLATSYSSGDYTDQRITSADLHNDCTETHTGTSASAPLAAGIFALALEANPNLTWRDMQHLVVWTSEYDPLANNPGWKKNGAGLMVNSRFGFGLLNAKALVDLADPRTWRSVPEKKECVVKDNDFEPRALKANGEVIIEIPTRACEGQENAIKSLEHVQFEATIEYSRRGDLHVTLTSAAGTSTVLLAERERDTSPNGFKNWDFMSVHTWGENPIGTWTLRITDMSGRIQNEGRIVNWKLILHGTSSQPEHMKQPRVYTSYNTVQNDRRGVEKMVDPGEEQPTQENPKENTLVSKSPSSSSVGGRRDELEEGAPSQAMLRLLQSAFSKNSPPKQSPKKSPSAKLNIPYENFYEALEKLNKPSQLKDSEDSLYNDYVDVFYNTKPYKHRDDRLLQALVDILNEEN
Procedure: as §1

PC7 = biological target: T3, PC7 (Homo sapiens, UniProt Q16549); assay: Enzyme inhibition assay, fluorogenic substrate, PC7
T3 sequence (Q16549 142-785): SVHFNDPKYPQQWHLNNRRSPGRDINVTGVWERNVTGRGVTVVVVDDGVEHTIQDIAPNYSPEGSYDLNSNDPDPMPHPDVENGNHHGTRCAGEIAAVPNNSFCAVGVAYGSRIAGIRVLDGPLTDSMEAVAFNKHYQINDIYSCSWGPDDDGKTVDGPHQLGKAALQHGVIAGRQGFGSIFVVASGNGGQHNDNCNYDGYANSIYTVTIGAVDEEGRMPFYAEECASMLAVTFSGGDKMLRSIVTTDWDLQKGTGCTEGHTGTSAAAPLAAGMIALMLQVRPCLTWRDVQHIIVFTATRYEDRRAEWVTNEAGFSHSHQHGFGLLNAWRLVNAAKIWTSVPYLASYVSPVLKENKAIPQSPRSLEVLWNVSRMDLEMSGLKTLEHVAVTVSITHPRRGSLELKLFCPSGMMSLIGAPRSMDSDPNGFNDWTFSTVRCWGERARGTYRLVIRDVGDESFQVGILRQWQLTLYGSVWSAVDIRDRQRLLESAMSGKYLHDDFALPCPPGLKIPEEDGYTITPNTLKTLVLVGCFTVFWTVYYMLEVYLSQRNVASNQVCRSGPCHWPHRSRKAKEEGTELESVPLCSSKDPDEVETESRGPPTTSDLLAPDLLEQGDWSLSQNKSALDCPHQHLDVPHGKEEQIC
Procedure: as §1

furin = furin (Homo sapiens, UniProt P09958); assay: Enzyme inhibition assay, fluorogenic substrate, furin
Procedure: as §1

furin, sequence (P09958 108-794, species assumed): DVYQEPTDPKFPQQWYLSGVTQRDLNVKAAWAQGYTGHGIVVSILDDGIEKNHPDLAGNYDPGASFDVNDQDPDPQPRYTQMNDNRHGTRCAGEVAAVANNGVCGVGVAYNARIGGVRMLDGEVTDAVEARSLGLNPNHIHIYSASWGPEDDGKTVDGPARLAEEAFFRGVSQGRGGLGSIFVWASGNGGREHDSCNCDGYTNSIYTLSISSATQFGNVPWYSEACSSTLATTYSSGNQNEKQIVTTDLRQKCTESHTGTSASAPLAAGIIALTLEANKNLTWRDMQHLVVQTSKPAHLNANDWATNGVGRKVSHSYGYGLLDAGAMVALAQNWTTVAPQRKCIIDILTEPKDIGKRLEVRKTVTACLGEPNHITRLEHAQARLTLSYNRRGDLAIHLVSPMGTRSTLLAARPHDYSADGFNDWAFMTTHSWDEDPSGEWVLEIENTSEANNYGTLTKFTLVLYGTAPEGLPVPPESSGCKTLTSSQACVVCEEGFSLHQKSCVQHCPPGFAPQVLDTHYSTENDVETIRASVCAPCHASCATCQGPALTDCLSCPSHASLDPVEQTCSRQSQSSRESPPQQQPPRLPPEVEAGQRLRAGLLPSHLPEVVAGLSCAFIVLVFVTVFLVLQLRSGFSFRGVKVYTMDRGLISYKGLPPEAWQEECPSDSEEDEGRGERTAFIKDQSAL
PC5/6, sequence (Q92824 115-1860): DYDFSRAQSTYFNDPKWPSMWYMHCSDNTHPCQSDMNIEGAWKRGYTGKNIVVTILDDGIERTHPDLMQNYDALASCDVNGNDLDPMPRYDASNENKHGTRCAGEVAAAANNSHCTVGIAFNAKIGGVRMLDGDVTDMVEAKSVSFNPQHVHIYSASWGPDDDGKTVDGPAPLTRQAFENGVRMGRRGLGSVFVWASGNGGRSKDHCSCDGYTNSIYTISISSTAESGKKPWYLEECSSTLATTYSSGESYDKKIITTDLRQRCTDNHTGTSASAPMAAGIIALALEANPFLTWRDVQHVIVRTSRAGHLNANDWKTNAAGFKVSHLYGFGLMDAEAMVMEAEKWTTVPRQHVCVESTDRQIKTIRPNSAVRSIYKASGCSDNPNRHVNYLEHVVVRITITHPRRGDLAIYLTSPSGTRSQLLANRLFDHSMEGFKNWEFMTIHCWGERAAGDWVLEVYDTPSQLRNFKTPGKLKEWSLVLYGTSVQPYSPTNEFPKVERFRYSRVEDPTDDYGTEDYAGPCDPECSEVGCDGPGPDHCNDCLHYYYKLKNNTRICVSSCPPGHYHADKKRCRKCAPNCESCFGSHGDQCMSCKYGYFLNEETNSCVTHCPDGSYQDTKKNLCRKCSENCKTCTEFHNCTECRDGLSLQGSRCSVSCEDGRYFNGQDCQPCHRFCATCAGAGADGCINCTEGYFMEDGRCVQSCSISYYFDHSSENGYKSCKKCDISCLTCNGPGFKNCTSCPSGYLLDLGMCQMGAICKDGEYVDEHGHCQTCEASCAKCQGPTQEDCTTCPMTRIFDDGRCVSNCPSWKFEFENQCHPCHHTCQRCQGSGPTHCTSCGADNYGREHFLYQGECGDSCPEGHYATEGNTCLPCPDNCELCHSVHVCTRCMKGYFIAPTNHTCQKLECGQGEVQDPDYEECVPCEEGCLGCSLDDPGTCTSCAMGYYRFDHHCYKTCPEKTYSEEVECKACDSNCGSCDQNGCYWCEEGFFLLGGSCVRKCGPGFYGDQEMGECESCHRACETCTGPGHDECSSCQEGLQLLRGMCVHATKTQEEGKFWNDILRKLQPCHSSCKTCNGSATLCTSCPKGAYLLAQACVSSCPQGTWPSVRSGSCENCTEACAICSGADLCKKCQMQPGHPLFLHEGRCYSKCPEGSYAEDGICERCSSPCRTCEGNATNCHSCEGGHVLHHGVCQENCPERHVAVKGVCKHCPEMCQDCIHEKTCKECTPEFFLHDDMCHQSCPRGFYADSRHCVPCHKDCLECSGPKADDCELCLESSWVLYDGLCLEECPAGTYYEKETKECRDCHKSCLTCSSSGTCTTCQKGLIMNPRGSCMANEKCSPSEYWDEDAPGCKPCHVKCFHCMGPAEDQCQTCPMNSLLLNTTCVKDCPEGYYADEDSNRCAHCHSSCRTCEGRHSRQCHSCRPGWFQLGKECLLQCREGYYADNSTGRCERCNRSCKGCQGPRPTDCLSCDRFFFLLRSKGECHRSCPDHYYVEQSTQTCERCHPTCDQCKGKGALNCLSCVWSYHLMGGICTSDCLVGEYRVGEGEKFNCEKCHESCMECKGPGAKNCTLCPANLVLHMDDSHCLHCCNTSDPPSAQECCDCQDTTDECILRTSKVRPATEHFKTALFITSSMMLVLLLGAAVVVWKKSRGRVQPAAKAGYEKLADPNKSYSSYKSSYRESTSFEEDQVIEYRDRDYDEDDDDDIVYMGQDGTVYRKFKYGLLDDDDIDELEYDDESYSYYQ

inhibition potency on PC5/6, in words (PC5/6): poor micromolar inhibitor | inhibition potency on PC2, in words (PC2): poor micromolar inhibitor | inhibition potency on PC1/3, in words (PC1/3): poor micromolar inhibitor | inhibition potency on PC7, in words (PC7): poor micromolar inhibitor | inhibition potency on furin, in words (furin): poor micromolar inhibitor
Substance: RVKR [RVKR—NH2, RVKR-NH2]
